Laboratory results published in ChEMBL document CHEMBL3856230, “Structure-Activity Relationships of Di-2-pyridylketone, 2-Benzoylpyridine, and 2-Acetylpyridine Thiosemicarbazones for Overcoming Pgp-Mediated Drug Resistance” (J Med Chem, 2016).
Active and inactive are the calls of the source. The calls are words filed in the database; no cut-off is given here.

Experiments:
KB 3-1 [1] = test: (§1) Antiproliferative activity against human KB3-1 cells after 24 hrs by MTT assay; format: functional, cell-based
KBV1 [2] = test: Induction of P-gp-mediated lysosomal membrane permeabilization in human KBV1 cells over expressing P-gp assessed as increase in LAMP2 fluorescence at 25 uM after 24 hrs by TexasRed staining based immunofluorescence microscopic analysis; format: cell-based
KB-V1 [3] = test: Induction of oxidative stress-dependent lysosomal membrane permeabilization in human KBV1 cells over expressing P-gp assessed as decrease in cathepsin D and LAMP2 lysosomal colocalization at 25 uM after 24 hrs by TexasRed staining based immunofluorescence microscopic analysis; format: functional, cell-based
KB 3-1 [4] = test: (§2) Antiproliferative activity against human KB3-1 cells after 24 hrs in presence of P-gp inhibitor elacridar by MTT assay; format: functional, cell-based
KBV1 [5] = test: Induction of P-gp-mediated lysosomal membrane permeabilization in human KBV1 cells over expressing P-gp assessed as cathepsin D release from lysosome to cytosol at 25 uM after 24 hrs by TexasRed staining based immunofluorescence microscopic analysis; format: cell-based
KB-V1 [6] = test: Induction of copper-dependent lysosomal membrane permeabilization in human KBV1 cells over expressing P-gp assessed as decrease in cathepsin D and LAMP2 lysosomal colocalization at 25 uM after 24 hrs by TexasRed staining based immunofluorescence microscopic analysis; format: functional, cell-based
[7] = Selectivity ratio of IC50 for human KB31 cells to IC50 for human KBV1 cells over expressing P-gp; format: functional
Homo sapiens [8] = species: Homo sapiens; test: Substrate activity at P-gp (unknown origin) in P-gp enriched membranes assessed as increase in ATPase activity at 50 uM in presence of Mg2-ATP after 40 mins by luciferase reporter gen assay relative to control; format: cell membranes
KBV1 [9] = test: Induction of P-gp-mediated lysosomal membrane permeabilization in human KBV1 cells over expressing P-gp assessed as cathepsin D release from lysosome to cytosol at 10 uM after 24 hrs by TexasRed staining based immunofluorescence microscopic analysis; format: cell-based
KBV1 [10] = test: Induction of P-gp-mediated lysosomal membrane permeabilization in human KBV1 cells over expressing P-gp assessed as increase in LAMP2 fluorescence at 10 uM after 24 hrs by TexasRed staining based immunofluorescence microscopic analysis; format: cell-based
KB-V1 [11] = test: Induction of copper-dependent lysosomal membrane permeabilization in human KBV1 cells over expressing P-gp assessed as decrease in cathepsin D and LAMP2 lysosomal colocalization at 10 uM after 24 hrs by TexasRed staining based immunofluorescence microscopic analysis; format: functional, cell-based
KB-V1 [12] = test: Induction of oxidative stress-dependent lysosomal membrane permeabilization in human KBV1 cells over expressing P-gp assessed as decrease in cathepsin D and LAMP2 lysosomal colocalization at 10 uM after 24 hrs by TexasRed staining based immunofluorescence microscopic analysis; format: functional, cell-based
KB-V1 [13] = test: (§3) Antiproliferative activity against human KBV1 cells over expressing P-gp after 24 hrs in presence of P-gp inhibitor elacridar by MTT assay; format: functional, cell-based
[14] = as §1; format: functional, cell-based; settings: KB 3-1, 24 h
[15] = as §2; format: functional, cell-based; settings: KB 3-1, 24 h
[16] = Antiproliferative activity against human KBV1 cells over expressing P-gp after 24 hrs by MTT assay; format: functional, cell-based; settings: KB-V1, 24 h
[17] = as §3; format: functional, cell-based; settings: KB-V1, 24 h
Homo sapiens [18] = species: Homo sapiens; test: Inhibition of P-gp (unknown origin) in P-gp enriched membranes assessed as […] at 100 uM in presence of Mg2-ATP after 40 mins by luciferase reporter gen assay relative to control; format: cell membranes

CN(C(=S)NN=C(c1ccccn1)c1ccccn1)C1CCCCC1
Activity (KB 3-1 [1]): Active | Activity (KBV1 [2]): Active | Activity (KB-V1 [3]): Active | Activity (KB 3-1 [4]): Active | Activity (KBV1 [5]): Active | Activity (KB-V1 [6]): Active | Ratio IC50 [7]: 8.1 | fold change (FC) (Homo sapiens [8]): 7.4

CN(C)C(=S)N/N=C(/c1ccccc1)c1ccccn1
Activity (KB 3-1 [1]): Active | Activity (KBV1 [2]): Active | Activity (KB-V1 [3]): Active | Activity (KB 3-1 [4]): Active | Activity (KBV1 [5]): Active | Activity (KB-V1 [6]): Active | Ratio IC50 [7]: 13.2 | fold change (FC) (Homo sapiens [8]): 7.9

CN(C)C(=S)NN=C(c1ccccn1)c1ccccn1
Activity (KB 3-1 [1]): Active | Activity (KBV1 [9]): Active | Activity (KB 3-1 [4]): Active | Activity (KBV1 [10]): Active | Activity (KB-V1 [11]): Active | Activity (KB-V1 [12]): Active | fold change (FC) (Homo sapiens [8]): 6.6

C/C(=N/NC(=S)N(C)C)c1ccccn1
Activity (KB 3-1 [1]): Active | Activity (KB 3-1 [4]): Active | Ratio IC50 [7]: 2.1 | Activity (KB-V1 [13]): Active | fold change (FC) (Homo sapiens [8]): 5.1

CN(/N=C(\c1ccccc1)c1ccccn1)C(N)=S
IC50 [14]: > 800 µM | IC50 [15]: > 800 µM | IC50 [16]: > 800 µM | IC50 [17]: > 800 µM | fold change (FC) (Homo sapiens [8]): 5.2

NC(=S)N/N=C/c1ncccc1N [TRIAPINE]
IC50 [14]: > 800 µM | IC50 [15]: > 800 µM | IC50 [16]: > 800 µM | IC50 [17]: > 800 µM | fold change (FC) (Homo sapiens [8]): 4.6

SODIUM ORTHOVANAD
fold change (FC) (Homo sapiens [18]): 11.9
